Experimental data reported in article PMC7999318 (International Journal of Molecular Sciences, 2021).

Legend:
[1] = system: ELuc-HepG2 cells
[2] = system: CYPs-ELuc-HepG2 cells
[3] = system: CYPs-ELuc-HepG2 cells; remark: listed apart in the source
[4] = system: ELuc-HepG2 cells; remark: listed apart in the source
[5] = system: ELuc-HepG2 cells; remark: listed apart in the source
[6] = system: CYPs-ELuc-HepG2 cells; remark: listed apart in the source
[7] = system: CYPs-HepG2 cells; conditions: cited from earlier work
[8] = system: wild-type HepG2 cells; conditions: cited from earlier work

Molecule | bioluminescence intensity [1] | bioluminescence intensity [2] | bioluminescence intensity in real time [5] | bioluminescence intensity in real time [6] | cytotoxicity [7] | cytotoxicity [8] | also measured
Nn1nnc2ccccc21 [ABT, 1-aminobenzotriazole] | not affected | not affected | – | – | – | – | –
OC[C@@H](O)[C@@H](O)[C@H](O)[C@H](O)CO [D-mannitol] | no remarkable changes | no remarkable changes | – | – | – | – | viability by WST-1 assay [3]: no remarkable changes; viability by WST-1 assay [4]: no remarkable changes; bioluminescence intensities during long-term culture [2]: no significant changes
CCCCCCCCCCCCOS(=O)(=O)[O-].[Na+] [SDS, sodium dodecyl sulfate] | – | – | – | – | – | – | concentration-response curves compared with ELuc-HepG2 cells (bioluminescence) ([2]; 3 days): very similar concentration-response curves
COc1cc(NC(C)CCCN)c2ncccc2c1 (centres unmarked) [primaquine] | – | – | Time- and concentration-dependent decreases | much faster decrease | – | – | time at which the first IC50 value was noted [5]: 22 h; decrease of bioluminescence intensity under CYP2D6 inhibitor [6]: partially abolished; time at which the first IC50 value was noted [6]: 12 h
COc1cc2c(c3oc4cccc(O)c4c(=O)c13)[C@@H]1C=CO[C@@H]1O2 [sterigmatocystin] | – | – | – | – | showed cytotoxicity | not | –
aflatoxin B1 | did not decrease | concentration-dependent decrease | no decrease | time- and concentration-dependent decreases | showed cytotoxicity | not | first IC50 value [5]: not observed; decrease of bioluminescence intensity under CYP3A4 inhibitor [6]: partially diminished; IC50 ([6]; read-out: first IC50 value): 7.9 µM; IC50 values during long-term culture [2]: almost unchanged; aflatoxin B1 concentration-dependent decrease of bioluminescence intensity under CYP inhibitor [2]: completely diminished
